Measurements as given in US20210238176A1, “PESTICIDALLY-ACTIVE BICYCLIC HETEROAROMATIC COMPOUNDS” (SYNGENTA CROP PROTECTION AG, priority 2018, published 2021).

Assays:
Type in all cases: in vivo
[1] = system: Myzus persicae (Green Peach Aphid); test: Myzus persicae systemic activity, pea seedling roots in test solution; settings: 144 h, test rate 24 ppm, systemic via pea seedling roots, 6 days
Description: Myzus persicae (Green Peach Aphid). Systemic Activity
Roots of pea seedlings infested with an aphid population of mixed ages were placed directly into aqueous test solutions prepared from 10,000 ppm DMSO stock solutions. The samples were assessed for mortality 6 days after placing seedlings into test solutions.

[2] = system: neonicotinoid-resistant Myzus persicae; test: Myzus persicae (neonicotinoid-resistant) mixed population, contact/feeding, pepper plants; settings: 120 h, neonicotinoid-resistant strain on pepper plants, 5 days after treatment, read-out: control (mortality)
Description: Myzus persicae (Neonicotinoid-Resistant, Green Peach Aphid), Mixed Population, Contact/Feeding.
Pepper plants were infested with mixed aged neonicotinoid-resistant aphid population and were treated 1 day after infestation with diluted test solutions in a spray chamber. 5 days after treatment, samples were assessed for mortality.

[3] = system: Myzus persicae (Green Peach Aphid); test: Myzus persicae intrinsic activity, sucrose solution under Parafilm; settings: 120 h, test rate 12 ppm, 5 days after infestation
Excerpt: Myzus persicae (Green Peach Aphid). Intrinsic Activity
Test compounds prepared from 10,000 ppm DMSO stock solutions were applied by pipette into 24-well microtiter plates and mixed with sucrose solution. The plates were closed with a stretched Parafilm. A plastic stencil with 24 holes was placed onto the plate and infested pea seedlings were placed directly on the Parafilm. The infested plate was closed with a gel blotting paper and another plastic stencil and then turned upside down. The samples were assessed for mortality 5 days after infestation.

[4] = system: Myzus persicae (Green Peach Aphid); test: Myzus persicae (green peach aphid) feeding/contact activity, sunflower leaf discs; settings: foliar, 144 h, application rate 200 ppm, aphid population of mixed ages, 6 days after infestation
Description: Myzus persicae (Green Peach Aphid): Feeding/Contact Activity
Sunflower leaf discs were placed onto agar in a 24-well microtiter plate and sprayed with aqueous test solutions prepared from 10,000 ppm DMSO stock solutions. After drying, the leaf discs were infested with an aphid population of mixed ages. The samples were assessed for mortality 6 days after infestation.

[5] = system: Bemisia tabaci (Cotton White Fly); test: Bemisia tabaci (cotton white fly) feeding/contact activity, cotton leaf discs; settings: foliar, 144 h, application rate 200 ppm, adult white flies, 6 days after incubation
Description: Bemisia tabaci (Cotton White Fly): Feeding/Contact Activity
Cotton leaf discs were placed on agar in 24-well microtiter plates and sprayed with aqueous test solutions prepared from 10,000 ppm DMSO stock solutions. After drying the leaf discs were infested with adult white flies. The samples were checked for mortality 6 days after incubation.

[6] = system: Nilaparvata lugens (Brown Plant Hopper, metabolic neonicotinoid-resistant); test: Nilaparvata lugens (metabolic neonicotinoid-resistant) larvicide, feeding/contact, rice plants; settings: 168 h, N3 nymphs, neonicotinoid-resistant strain, 7 days after treatment, read-out: control (mortality and growth regulation)
Description: Nilaparvata lugens (Brown Plant Hopper—Metabolic Neonicotinoid-Resistant), Larvicide, Feeding/Contact
Rice plants were treated with the diluted test solutions in a spray chamber. After drying, the plants were infested with ˜20 N3 nymphs. 7 days after the treatment, samples were assessed for mortality and growth regulation.

Cn1ccc(-n2c3cccn(Cc4ccc(Cl)nc4)c-3nc2=O)n1 [Compound A2, 4-[(6-chloro-3-pyridyl)methyl]-1-(1-methylpyrazol-3-yl)imidazo[4,5-b]pyridin-2-one]
≥ 80%: mortality at 24 ppm [1] | mortality at 200 ppm [2] | mortality at 12 ppm [3] | mortality at 200 ppm [4]

Cn1cc(-n2c3cccn(Cc4ccc(Cl)nc4)c-3nc2=O)cn1 [Compound A3, 4-[(6-chloro-3-pyridyl)methyl]-1-(1-methylpyrazol-4-yl)imidazo[4,5-b]pyridin-2-one]
≥ 80%: mortality at 200 ppm [5] | mortality at 24 ppm [1] | mortality at 200 ppm [2] | mortality at 200 ppm [6] | mortality at 12 ppm [3] | mortality at 200 ppm [4]

O=c1nc2n(Cc3ccc(Cl)nc3)cccc-2n1-c1ccc(C(F)(F)F)cc1 [Compound A13, 4-[(6-chloro-3-pyridyl)methyl]-1-[4-(trifluoromethyl)phenyl]imidazo[4,5-b]pyridin-2-one]
≥ 80%: mortality at 200 ppm [5] | mortality at 12 ppm [3] | mortality at 200 ppm [4]

O=c1nc2n(Cc3ccc(Cl)nc3)cccc-2n1-c1cccc(F)c1 [Compound A31, 4-[(6-chloro-3-pyridyl)methyl]-1-(3-fluorophenyl)imidazo[4,5-b]pyridin-2-one]
≥ 80%: mortality at 24 ppm [1] | mortality at 200 ppm [6] | mortality at 12 ppm [3]

O=c1nc2n(Cc3ccc(Cl)nc3)cccc-2n1-c1cccnc1 [Compound A33, 4-[(6-chloro-3-pyridyl)methyl]-1-(3-pyridyl)imidazo[4,5-b]pyridin-2-one]
≥ 80%: mortality at 24 ppm [1] | mortality at 200 ppm [6] | mortality at 12 ppm [3] | mortality at 200 ppm [4]

O=c1nc2n(Cc3ccc(Cl)nc3)cccc-2n1-c1ccccc1 [Compound A34, 4-[(6-chloro-3-pyridyl)methyl]-1-phenyl-imidazo[4,5-b]pyridin-2-one]
≥ 80%: mortality at 24 ppm [1] | mortality at 200 ppm [6] | mortality at 12 ppm [3] | mortality at 200 ppm [4]

O=c1nc2n(Cc3ccc(Cl)nc3)cccc-2n1-c1ccc(OC(F)(F)F)cc1 [Compound A39, 4-[(6-chloro-3-pyridyl)methyl]-1-[4-(trifluoromethoxy)phenyl]imidazo[4,5-b]pyridin-2-one]
≥ 80%: mortality at 200 ppm [5] | mortality at 12 ppm [3] | mortality at 200 ppm [4]

N#Cc1ccccc1-n1c2cccn(Cc3ccc(Cl)nc3)c-2nc1=O [Compound A40, 2-[4-[(6-chloro-3-pyridyl)methyl]-2-oxo-imidazo[4,5-b]pyridin-1-yl]benzonitrile]
≥ 80%: mortality at 24 ppm [1] | mortality at 12 ppm [3] | mortality at 200 ppm [4]

CC(C)n1cc(-n2c3cccn(Cc4ccc(Cl)nc4)c-3nc2=O)cn1 [Compound A62, 4-[(6-chloro-3-pyridyl)methyl]-1-(1-isopropylpyrazol-4-yl)imidazo[4,5-b]pyridin-2-one]
≥ 80%: mortality at 200 ppm [5] | mortality at 12 ppm [3] | mortality at 200 ppm [4]

O=c1nc2n(Cc3ccc(Cl)nc3)cccc-2n1-c1cncs1 [Compound A66, 4-[(6-chloro-3-pyridyl)methyl]-1-thiazol-5-yl-imidazo[4,5-b]pyridin-2-one]
≥ 80%: mortality at 200 ppm [5] | mortality at 12 ppm [3] | mortality at 200 ppm [4]

O=c1nc2n(Cc3ccc(Cl)nc3)cccc-2n1-c1ccoc1 [Compound A70, 4-[(6-chloro-3-pyridyl)methyl]-1-(3-furyl)imidazo[4,5-b]pyridin-2-one]
≥ 80%: mortality at 200 ppm [5] | mortality at 12 ppm [3]

O=c1nc2n(Cc3ccc(Cl)nc3)cccc-2n1-c1cnn(C(F)(F)F)c1 [Compound A80, 4-[(6-chloro-3-pyridyl)methyl]-1-[1-(trifluoromethyl)pyrazol-4-yl]imidazo[4,5-b]pyridin-2-one]
≥ 80%: mortality at 200 ppm [5] | mortality at 200 ppm [2] | mortality at 12 ppm [3] | mortality at 200 ppm [4]

COc1ccccc1-n1c2cccn(Cc3ccc(Cl)nc3)c-2nc1=O [Compound A82, 4-[(6-chloro-3-pyridyl)methyl]-1-(2-methoxyphenyl)imidazo[4,5-b]pyridin-2-one]
≥ 80%: mortality at 24 ppm [1] | mortality at 12 ppm [3] | mortality at 200 ppm [4]

CCCn1cc(-n2c3cccn(Cc4ccc(Cl)nc4)c-3nc2=O)cn1 [Compound A83, 4-[(6-chloro-3-pyridyl)methyl]-1-(1-propylpyrazol-4-yl)imidazo[4,5-b]pyridin-2-one]
≥ 80%: mortality at 200 ppm [5] | mortality at 24 ppm [1] | mortality at 12 ppm [3] | mortality at 200 ppm [4]

O=c1nc2n(Cc3ccc(Cl)nc3)cccc-2n1-c1cnn(CC(F)(F)F)c1 [Compound A85, 4-[(6-chloro-3-pyridyl)methyl]-1-[1-(2,2,2-trifluoroethyl)pyrazol-4-yl]imidazo[4,5-b]pyridin-2-one]
≥ 80%: mortality at 200 ppm [5] | mortality at 24 ppm [1] | mortality at 12 ppm [3] | mortality at 200 ppm [4]

Cn1nc(C(F)(F)F)cc1-n1c2cccn(Cc3ccc(Cl)nc3)c-2nc1=O [Compound A88, 4-[(6-chloro-3-pyridyl)methyl]-1-[2-methyl-5-(trifluoromethyl)pyrazol-3-yl]imidazo[4,5-b]pyridin-2-one]
≥ 80%: mortality at 200 ppm [5] | mortality at 24 ppm [1] | mortality at 12 ppm [3] | mortality at 200 ppm [4]

CC(C)n1nccc1-n1c2cccn(Cc3ccc(Cl)nc3)c-2nc1=O [Compound A94, 4-[(6-chloro-3-pyridyl)methyl]-1-(2-isopropylpyrazol-3-yl)imidazo[4,5-b]pyridin-2-one]
≥ 80%: mortality at 200 ppm [5] | mortality at 24 ppm [1] | mortality at 12 ppm [3] | mortality at 200 ppm [4]

Cn1cc(-n2c3cccn(Cc4ccc(Cl)nc4)c-3nc2=O)c(C(F)F)n1 [Compound A95, 4-[(6-chloro-3-pyridyl)methyl]-1-[3-(difluoromethyl)-1-methyl-pyrazol-4-yl]imidazo[4,5-b]pyridin-2-one]
≥ 80%: mortality at 24 ppm [1] | mortality at 12 ppm [3] | mortality at 200 ppm [4]

Cn1cc(-n2c3cccn(Cc4ccc(Cl)nc4)c-3nc2=O)c(C(F)(F)F)n1 [Compound A96, 4-[(6-chloro-3-pyridyl)methyl]-1-[1-methyl-3-(trifluoromethyl)pyrazol-4-yl]imidazo[4,5-b]pyridin-2-one]
≥ 80%: mortality at 200 ppm [5] | mortality at 24 ppm [1] | mortality at 12 ppm [3] | mortality at 200 ppm [4]

Cn1ncc(-n2c3cccn(Cc4ccc(Cl)nc4)c-3nc2=O)c1C(F)F [Compound A97, 4-[(6-chloro-3-pyridyl)methyl]-1-[5-(difluoromethyl)-1-methyl-pyrazol-4-yl]imidazo[4,5-b]pyridin-2-one]
≥ 80%: mortality at 24 ppm [1] | mortality at 12 ppm [3] | mortality at 200 ppm [4]

Cc1nn(C(F)F)cc1-n1c2cccn(Cc3ccc(Cl)nc3)c-2nc1=O [Compound A98, 4-[(6-chloro-3-pyridyl)methyl]-1-[1-(difluoromethyl)-3-methyl-pyrazol-4-yl]imidazo[4,5-b]pyridin-2-one]
≥ 80%: mortality at 24 ppm [1] | mortality at 12 ppm [3] | mortality at 200 ppm [4]

Cc1c(-n2c3cccn(Cc4ccc(Cl)nc4)c-3nc2=O)cnn1C(F)F [Compound A99, 4-[(6-chloro-3-pyridyl)methyl]-1-[1-(difluoromethyl)-5-methyl-pyrazol-4-yl]imidazo[4,5-b]pyridin-2-one]
≥ 80%: mortality at 24 ppm [1] | mortality at 12 ppm [3] | mortality at 200 ppm [4]

CCc1nn(C)cc1-n1c2cccn(Cc3ccc(Cl)nc3)c-2nc1=O [Compound A100, 4-[(6-chloro-3-pyridyl)methyl]-1-(3-ethyl-1-methyl-pyrazol-4-yl)imidazo[4,5-b]pyridin-2-one]
≥ 80%: mortality at 200 ppm [5] | mortality at 24 ppm [1] | mortality at 12 ppm [3] | mortality at 200 ppm [4]

CCn1cc(-n2c3cccn(Cc4ccc(Cl)nc4)c-3nc2=O)c(C)n1 [Compound A101, 4-[(6-chloro-3-pyridyl)methyl]-1-(1-ethyl-3-methyl-pyrazol-4-yl)imidazo[4,5-b]pyridin-2-one]
≥ 80%: mortality at 200 ppm [5] | mortality at 12 ppm [3] | mortality at 200 ppm [4]

Cc1nn(C(C)C)cc1-n1c2cccn(Cc3ccc(Cl)nc3)c-2nc1=O [Compound A102, 4-[(6-chloro-3-pyridyl)methyl]-1-(1-isopropyl-3-methyl-pyrazol-4-yl)imidazo[4,5-b]pyridin-2-one]
≥ 80%: mortality at 200 ppm [5] | mortality at 24 ppm [1] | mortality at 12 ppm [3] | mortality at 200 ppm [4]
